Measured values: patent US20090317419A1, “Tetramers” (Duke University, priority 2008, published 2009)
Ends that are not written are not given here. * marks the point of attachment. Biotin = O=C1N[C@H]2[C@H](CS[C@H]2CCCCC(=O)*)N1

What was measured:
B220+ BALB/c splenocytes = details: pre-incubation with 10-fold molar excess unlabeled tetramer, 30 min on ice
Description: Staining was conducted at 4° C. in several sequential steps in FACS staining buffer (1×PBS with 2% FCS, 0.1% NaN3), washing twice between steps. First, cells were incubated with v-amine live/dead dye for 15 min. Next, cells were stained with APC-labeled tetramers for 30 min. Where applicable, this was preceded by addition of cold tetramer at 10 fold molar excess for 1 h. Finally, cells were stained with Fc block for 30 min, followed by incubation with combinations of primary antibody cocktails for 30 min, and secondary staining with SA-Texas Red for 30 min.

[1] = tested on: naïve splenic B cells, BALB/c congenic strain bearing the IgH^b allotype
Description: Mice. Female C57BL/6, BALB/c, B6Igh^a, and CB17 (BALBc Igh^b) inbred mouse strains (8-12 weeks of age) were purchased from Charles River Laboratories. All mice were housed in the Duke University Animal Facility in a pathogen-free environment with 12 hour light/dark cycles at 20-25° C. under AALAC guidelines and in accordance with all Institutional Animal Care and Use Committee and Duke University Institutional Biosafety Committee-approved animal protocols.
Antibodies and flow cytometry. Immunofluorescent staining of single cell suspensions (≧2×10^6) was conducted using pre-mixed combinations of fluorochrome-labeled antibodies and APC-conjugated B cell tetramers at empirically-determined optimal concentrations. All antibodies were from BD unless otherwise stated. […] Other reagents included biotinylated antibodies against dump channel markers: Thy1 (Ox7; Abcam), F4/80 (BM8; Abcam), CD11c (clone HL3), Gr-1 (clone RB6-8C5), TER-119, and NK-1.1 (clone PK136), secondary staining SA-Texas Red conjugate; v-amine live/dead violet dye (Molecular Probes), and Fc block (anti-CD16/32; clone 2.4G2).
Staining was conducted at 4° C. in several sequential steps in FACS staining buffer (1×PBS with 2% FCS, 0.1% NaN3), washing twice between steps. First, cells were incubated with v-amine live/dead dye for 15 min. Next, cells were stained with APC-labeled tetramers for 30 min. […]

Substance: Biotin-GGGQQEKNEQELLELDKWASLWN [gp41 MPER tetramer]
- inhibition of binding of APC-labeled gp41 MPER-tetramer (B220+ BALB/c splenocytes): > 90%
- tetramer binding to splenic B cells [1]: completely loses gp41 2F5 MPER binding
